Test results from PubChem BioAssay AID248 (DTP/NCI, 2004).
Values joined by “and” are separate entries in the source; they are usually repeats but may differ in a detail not shown here. Equal values may be shown once. Toxic doses and inconclusive results are not listed. No stated cut-off is given here; in the data, active means T/C of 150% or more; inactive means T/C below 125%.

System: L1210 leukemia ip in BDF1 mice, survival T/C
Assay: NCI In Vivo Anticancer Drug Screen. Data for tumor model L1210 Leukemia (intraperitoneal) in B6D2F1 (BDF1) mice
Details: endpoint: mean survival time, higher = longer survival
Summary of the method: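 Antitumor effect is assessed in tumor-bearing animals. Survival in the compound arm is compared with a vehicle-dosed control arm and expressed as their quotient.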

[1] = dose: 50.0 mg/kg/injection, schedule: Q01DX001 (ip), vehicle: carboxymethylcellulose (CMC)
[2] = dose: 100.0 mg/kg/injection, schedule: Q01DX001 (ip), vehicle: carboxymethylcellulose (CMC)
[3] = dose: 200.0 mg/kg/injection, schedule: Q01DX001 (ip), vehicle: carboxymethylcellulose (CMC)
[4] = dose: 400.0 mg/kg/injection, schedule: Q01DX001 (ip), vehicle: carboxymethylcellulose (CMC)
[5] = dose: 100.0 mg/kg/injection, schedule: Q01DX001 (ip), vehicle: other
[6] = dose: 200.0 mg/kg/injection, schedule: Q01DX001 (ip), vehicle: other
[7] = dose: 400.0 mg/kg/injection, schedule: Q01DX001 (ip), vehicle: other
[8] = dose: 100.0 mg/kg/injection, schedule: Q01DX009 (ip), vehicle: saline
[9] = dose: 100.0 mg/kg/injection, schedule: Q04DX003 (ip), vehicle: saline
[10] = dose: 200.0 mg/kg/injection, schedule: Q01DX009 (ip), vehicle: saline
[11] = dose: 200.0 mg/kg/injection, schedule: Q04DX003 (ip), vehicle: saline
[12] = dose: 400.0 mg/kg/injection, schedule: Q01DX009 (ip), vehicle: saline
[13] = dose: 400.0 mg/kg/injection, schedule: Q04DX003 (ip), vehicle: saline
[14] = dose: 100.0 mg/kg/injection, schedule: Q04DX002 (ip), vehicle: Klucel (hydroxypropylcellulose) (HPC)
[15] = dose: 200.0 mg/kg/injection, schedule: Q04DX002 (ip), vehicle: Klucel (hydroxypropylcellulose) (HPC)
[16] = dose: 400.0 mg/kg/injection, schedule: Q04DX002 (ip), vehicle: Klucel (hydroxypropylcellulose) (HPC)
[17] = dose: 100.0 mg/kg/injection, schedule: Q01DX009 (ip), vehicle: saline with Tween-80
[18] = dose: 200.0 mg/kg/injection, schedule: Q01DX009 (ip), vehicle: saline with Tween-80
[19] = dose: 400.0 mg/kg/injection, schedule: Q01DX009 (ip), vehicle: saline with Tween-80
[20] = dose: 100.0 mg/kg/injection, schedule: Q01DX009 (ip), vehicle: Klucel (hydroxypropylcellulose) (HPC)
[21] = dose: 200.0 mg/kg/injection, schedule: Q01DX009 (ip), vehicle: Klucel (hydroxypropylcellulose) (HPC)
[22] = dose: 400.0 mg/kg/injection, schedule: Q01DX009 (ip), vehicle: Klucel (hydroxypropylcellulose) (HPC)

Measured: T/C

Cc1ccc(S(=O)(=O)F)cc1N
inactive: dose: 25.0 mg/kg/injection, schedule: Q01DX009 (ip), vehicle: carboxymethylcellulose (CMC) 95 % of control and 100 % of control | dose: 25.0 mg/kg/injection, schedule: Q04DX002 (ip), vehicle: carboxymethylcellulose (CMC) 100 % of control and 106 % of control | [1] 104 % of control and 87 % of control | dose: 50.0 mg/kg/injection, schedule: Q01DX009 (ip), vehicle: carboxymethylcellulose (CMC) 103 % of control and 88 % of control | dose: 50.0 mg/kg/injection, schedule: Q04DX002 (ip), vehicle: carboxymethylcellulose (CMC) 93 % of control and 100 % of control | dose: 50.0 mg/kg/injection, schedule: Q04DX003 (ip), vehicle: carboxymethylcellulose (CMC) 98 % of control and 90 % of control | [2] 101 % of control and 104 % of control | dose: 100.0 mg/kg/injection, schedule: Q04DX002 (ip), vehicle: carboxymethylcellulose (CMC) 107 % of control and 90 % of control | dose: 100.0 mg/kg/injection, schedule: Q04DX003 (ip), vehicle: carboxymethylcellulose (CMC) 94 % of control and 87 % of control | [3] 106 % of control and 111 % of control | dose: 200.0 mg/kg/injection, schedule: Q04DX003 (ip), vehicle: carboxymethylcellulose (CMC) 96 % of control and 87 % of control

Cc1cc2nc(/C(C#N)=C/c3cc(Cl)cc(Cl)c3O)[nH]c2cc1C
inactive: dose: 100.0 mg/kg/injection, schedule: Q01DX009 (ip), vehicle: other 93 % of control | dose: 200.0 mg/kg/injection, schedule: Q01DX009 (ip), vehicle: other 104 % of control | dose: 400.0 mg/kg/injection, schedule: Q01DX009 (ip), vehicle: other 93 % of control

CCc1c(C)nc2[nH]ncn2c1=O
inactive: dose: 75.0 mg/kg/injection, schedule: Q01DX001 (ip), vehicle: other 96 % of control | dose: 150.0 mg/kg/injection, schedule: Q01DX001 (ip), vehicle: other 97 % of control | dose: 300.0 mg/kg/injection, schedule: Q01DX001 (ip), vehicle: other 93 % of control

O=C1CCC2c3ccccc3-c3cccc1c32 (centres undefined)
inactive: [1] 100 % of control | [2] 91 % of control | [3] 96 % of control | [4] 102 % of control

CC(=O)Nc1ccc2ncccc2c1[N+](=O)[O-]
inactive: [5] 102 % of control | [6] 100 % of control | [7] 100 % of control

O=C(Nc1ccc(C2=NCCN2)cc1)c1cc(Cl)c(C(=O)Nc2ccc(C3=NCCN3)cc2)cc1Cl
inactive: dose: 13.4 mg/kg/injection, schedule: Q01DX Z (ip), vehicle: carboxymethylcellulose (CMC) 104 % of control | dose: 20.0 mg/kg/injection, schedule: Q01DX Z (ip), vehicle: carboxymethylcellulose (CMC) 123 % of control | dose: 45.0 mg/kg/injection, schedule: Q01DX Z (ip), vehicle: carboxymethylcellulose (CMC) 88 % of control

CCN(CC)CCCNC=O
inactive: [8] 94 % of control | [9] 111 % of control | [10] 94 % of control | [11] 102 % of control | [12] 94 % of control | [13] 108 % of control

O=C1CCCC(c2ccccc2)O1 (centres undefined)
inactive: [14] 108 % of control | [15] 101 % of control | [16] 101 % of control

CN(C)CCC(C)(N)c1cccc2ccccc12 (centres undefined)
inactive: [9] 113 % of control | [11] 107 % of control

OC(c1cccc(C(O)(C(F)(F)F)C(F)(F)F)c1)(C(F)(F)F)C(F)(F)F
inactive: dose: 5.0 mg/kg/injection, schedule: Q01DX001 (ip), vehicle: saline 97 % of control | dose: 10.0 mg/kg/injection, schedule: Q01DX001 (ip), vehicle: saline 92 % of control | dose: 20.0 mg/kg/injection, schedule: Q01DX001 (ip), vehicle: saline 100 % of control | dose: 40.0 mg/kg/injection, schedule: Q01DX001 (ip), vehicle: saline 93 % of control

COC(=O)c1ccccc1-c1c(C)cccc1[N+](=O)[O-]
inactive: [17] 105 % of control | [18] 90 % of control | [19] 100 % of control

O=C1NC(=O)C(c2ccccc2)(c2ccc(Cl)cc2Cl)N1 (centres undefined)
inactive: [2] 100 % of control | dose: 100.0 mg/kg/injection, schedule: Q01DX001 (ip), vehicle: saline 121 % of control | [8] 90 % of control | [9] 86 % of control | [3] 110 % of control | dose: 200.0 mg/kg/injection, schedule: Q01DX001 (ip), vehicle: saline 97 % of control | [10] 87 % of control | [11] 102 % of control | [4] 105 % of control | dose: 400.0 mg/kg/injection, schedule: Q01DX001 (ip), vehicle: saline 95 % of control | [12] 89 % of control | [13] 93 % of control

Fc1cc(N(CCCl)CCCl)ccc1C=NCCCN=Cc1ccc(N(CCCl)CCCl)cc1F
inactive: [2] 95 % of control | [3] 95 % of control | [4] 111 % of control

Cc1cc(=O)n2c3c(cc(C#N)cc13)OC2
inactive: [20] 90 % of control | [14] 96 % of control | [21] 98 % of control | [22] 95 % of control | [16] 89 % of control

COc1ccc([N+](=O)[O-])cc1CNCCCl
inactive: dose: 100.0 mg/kg/injection, schedule: Q01DX001 (ip), vehicle: Klucel (hydroxypropylcellulose) (HPC) 100 % of control | dose: 400.0 mg/kg/injection, schedule: Q01DX001 (ip), vehicle: Klucel (hydroxypropylcellulose) (HPC) 94 % of control

CC(=O)Nc1c(Cl)cc(I)cc1Cl
inactive: [20] 103 % of control | [21] 103 % of control | [22] 97 % of control

COc1ccc(Cl)c(NC(=O)Nc2cc(Cl)ccc2C)c1
inactive: [17] 94 % of control and 95 % of control | dose: 100.0 mg/kg/injection, schedule: Q04DX002 (ip), vehicle: saline with Tween-80 98 % of control and 91 % of control | [18] 90 % of control | dose: 200.0 mg/kg/injection, schedule: Q04DX002 (ip), vehicle: saline with Tween-80 95 % of control and 91 % of control | [19] 93 % of control | dose: 400.0 mg/kg/injection, schedule: Q04DX002 (ip), vehicle: saline with Tween-80 87 % of control and 90 % of control

CC(C)(C)OC(=O)N1CC=CCN1C(=O)OC(C)(C)C
inactive: [5] 98 % of control | [6] 93 % of control | [7] 102 % of control

CC1CCN(P(c2ccccc2)N2CCC(C)CC2)CC1
inactive: [14] 97 % of control | [15] 97 % of control | [16] 100 % of control

O=c1[nH]cnc2c1nc1n2CCC1
inactive: dose: 50.0 mg/kg/injection, schedule: Q01DX009 (ip), vehicle: saline with Tween-80 93 % of control | [17] 90 % of control | dose: 100.0 mg/kg/injection, schedule: Q04DX003 (ip), vehicle: saline with Tween-80 105 % of control | [18] 88 % of control | dose: 200.0 mg/kg/injection, schedule: Q04DX003 (ip), vehicle: saline with Tween-80 102 % of control

O=C(/C=C/c1ccco1)c1cccc([N+](=O)[O-])c1
inactive: dose: 100.0 mg/kg/injection, schedule: Q01DX001 (ip), vehicle: saline with Tween-80 97 % of control | dose: 200.0 mg/kg/injection, schedule: Q01DX001 (ip), vehicle: saline with Tween-80 95 % of control | dose: 400.0 mg/kg/injection, schedule: Q01DX001 (ip), vehicle: saline with Tween-80 92 % of control

CC(=O)N(CC(=O)OCc1ccccc1)C(C)=O
inactive: [8] 110 % of control | [10] 103 % of control | [12] 105 % of control

Cc1ccc2c(ccc(/C=C/c3ccnc4c(O)cccc34)[n+]2C)c1
inactive: dose: 25.0 mg/kg/injection, schedule: Q01DX001 (ip), vehicle: saline 99 % of control | dose: 35.0 mg/kg/injection, schedule: Q01DX001 (ip), vehicle: saline 111 % of control | dose: 55.0 mg/kg/injection, schedule: Q01DX001 (ip), vehicle: saline 119 % of control | dose: 85.0 mg/kg/injection, schedule: Q01DX001 (ip), vehicle: saline 123 % of control | dose: 132.0 mg/kg/injection, schedule: Q01DX001 (ip), vehicle: saline 115 % of control and 121 % of control | dose: 198.0 mg/kg/injection, schedule: Q01DX001 (ip), vehicle: saline 117 % of control
